What was measured:
[1] = biological target: T1, GppNHp-loaded KRAS4b (amino acids 1-169) G12C/C118S (Homo sapiens, UniProt P01116, C118S/G12C); experiment: MALDI-TOF MS covalent Cys12 modification, GppNHp-loaded KRAS G12C; assay type: binding; conditions: 15 minutes reaction time, 1 μM protein, 1:2.5 protein to compound ratio
T1 construct: KRAS4b (amino acids 1-169) G12C/C118S protein; made in house
Method: (§1) MALDI-TOF MS analysis was performed using 1 μM protein target, and 1:2.5 protein to compound ratio was used.
(§2) Reaction: 1 μM of GppNHp, GTP, or GDP-loaded KRAS4b (amino acids 1-169) G12C/C118S protein (produced in-house by Protein Expression Laboratory, FNLCR/Leidos Biomed) in 20 mM 4-(2-hydroxyethyl)-1-piperazineethanesulfonic acid (HEPES) buffer containing 150 mM NaCl, 1 mM MgCl2, pH 7.3 was prepared freshly before assay. Ten-μL aliquots of protein were dispensed onto low volume 384-well plate, then 375 nL DMSO, and 25 nL of tested compounds from 5 mM DMSO stocks were added to appropriate wells using ECHO 555 acoustic liquid handler (Labcyte Inc.). For each reaction/assay, three blanks were prepared by mixing 10 μL of protein solution with 400 nL DMSO. The contents of the wells were carefully mixed by aspiration, and then each plate was sealed with an adhesive cover, centrifuged at 2000 g for 1 minute, and kept in the dark at room temperature until 5 min, 15 min, 30 min, 2 h, or 6 h collections.
(§3) Target pretreatment: Before each assay MALDI target (Bruker MPT 384 ground steel BC) was pre-treated by pipetting on each spot 0.75 μL of saturated sinapinic acid in acetonitrile (ACN).
(§4) Sample preparation: At collection time point, 2 μL of reaction mixtures were pipetted out into 20 μL MALDI matrix solution (saturated solution of sinapinic acid in 1:1 ACN:water solution containing 0.75% trifluoroacetic acid (TFA)) deposited on 384 well polypropylene plate. Resulting solution was mixed by aspiration, centrifuged at 2000 g for 1 minute, then 1 μL aliquots were dispensed on pre-treated MALDI target using Beckman Coulter Biomek FX^P 96/384-Span-8 Laboratory Automation Workstation. Finally, the MALDI target was dried under mild vacuum to produce spots with fine crystalline structure.
(§5) Measurements: MALDI-TOF measurements were performed on a Bruker Daltonics rapifleX Tissuetyper TOF-TOF mass spectrometer using linear mode and mass range from 18.6 to 21.6 kDa. Detector gain was set to 3.3× (483 V), sample rate to 5 GS/s, real time smoothing to medium (175 MHz), laser smart beam pattern was set to: “MS Thin Layer M5”, and the laser frequency was 10000 Hz. Spectra were automatically collected using custom AutoXecute method. Laser power was auto adjusted using fuzzy control. The peak selection range was set to be between 19000 and 21500 Da. Peak evaluation uses half width parameter set to be smaller than 40 Da for processed spectrograms (centroid peak detection: smoothed by SavitzkyGolay algorithm using 7 m/z width and 2 cycles; baseline was subtracted using median algorithm with flatness 1 and median level 0.01). Fuzzy control used Proteins/Oligonucleotides protocol with minimum half width 1/10 times above threshold. Up to 40000 satisfactory shots were collected in 10000 shot steps. Dynamic termination was implemented to finish data collection when peak signal/noise ratio reached a value of 50.
(§6) Spectra processing: Spectra were smoothed by SavitzkyGolay algorithm using 7 m/z width and three cycles. Centroid peak detection algorithm was used with signal to noise threshold set to 6, relative intensity threshold 4%, peak width 10 m/z and median baseline subtraction using flatness of 1 and median level of 0.01. Peak intensity and area under the peak were evaluated and recorded for all peaks between 19,300 Da and 21,550 Da.
(§7) Calculation of percent modification: Percent modification was calculated as a ratio of peak height for protein modified by compound to sum of peak height of remaining protein plus peak height for protein modified by compound. If multiple modifications were observed each was calculated as a ratio of peak height for given modification versus sum of peak heights for all observed protein species. Data reported in Table 5 are from the 15 minutes reaction time point.

[2] = biological target: T2, GTP-loaded KRAS4b (amino acids 1-169) G12C/C118S (Homo sapiens, UniProt P01116, C118S/G12C); experiment: MALDI-TOF MS covalent Cys12 modification, GTP-loaded KRAS G12C; assay type: binding; conditions: 15 minutes reaction time, 1 μM protein, 1:2.5 protein to compound ratio
T2 construct: KRAS4b (amino acids 1-169) G12C/C118S protein; made in house
Method: as §1, §2, §3, §4, §5, §6, §7

[3] = biological target: T3, GDP-loaded KRAS4b (amino acids 1-169) G12C/C118S (Homo sapiens, UniProt P01116, C118S/G12C); experiment: MALDI-TOF MS covalent Cys12 modification, GDP-loaded KRAS G12C; assay type: binding; conditions: 15 minutes reaction time, 1 μM protein, 1:2.5 protein to compound ratio
T3 construct: KRAS4b (amino acids 1-169) G12C/C118S protein; made in house
Method: as §1, §2, §3, §4, §5, §6, §7

[4] = biological target: T4, Avi-KRAS G12C (1-169) GppNHp/RAF1 RBD-3×FLAG (52-151) (Homo sapiens, UniProt P01116, G12C); experiment: KRAS G12C-effector (RAF1 RBD) protein:protein interaction HTRF disruption assay; assay type: biochemical; conditions: PPI HTRF
T4 construct: Avi-KRAS G12C (1-169) GppNHp
Method: A protein:protein interaction (PPI) Homogeneous Time Resolved Fluorescence (HTRF) assay was used to determine the effectiveness of compounds of the present disclosure in disrupting KRAS G12C protein and effector (RAF1) binding.
The HTRF assay used the following reagents and proteins: 50 nM Avi-KRAS G12C (1-169) GppNHp/RAF1 RBD-3×FLAG (52-151); 75 nM Avi-RAF1 RBD-3×FLAG; Assay Buffer: 50 mM Tris pH 7.5, 100 mM NaCl, 5 mM MgCl2, 0.1% BSA, 0.01% Tween 20, 10% DMSO; Bead Buffer: 50 mM Tris pH 7.5, 0.01% Tween 20; Assay volume: 20 μL (384 well plate-low volume format); and Compound titration: 30-0.02 μM, 3× dilution series.
The HTRF assay employed the following protocol:
Compounds were dispensed in assay plate (384-well, Grenier Bione #784075) using Echo (model 555) with dose response settings: 200 nL final volume, titration from 100 μM as a 10-point dilution series. KRAS proteins were prepared in assay buffer, and dispensed on plates, 5 μL per well, then incubated for 1 h at room temperature, with 700 rpm shaking. RAF1 RBD were prepared in assay buffer, dispensed onto plates, 5 μL per well, and then incubated for 1 h at room temperature, with 700 rpm shaking. Reagent mix was then prepared and dispensed on plates, 10 μL per well, and then incubated for 1 h at room temperature, with 700 rpm shaking.
Plates were analyzed on an Envision plate reader using the following setting: Excitation 320 nm, Bandwidth 75 nm, Emission 615 nm, Bandwidth 85 nm; Gain 100%; Flashes 100; Lag 60 μs. Data was reported as percentage of activity, with DMSO as 100%. Data was plotted and analyzed using Prism 8.

pERK in NCI-H358 cells = experiment: Cell-based pERK HTRF assay; conditions: Homo sapiens, 0.5 h, 30 min incubation
Method: pERK HTRF assays (Perkin Elmer) were used to determine the effectiveness of compounds of the present disclosure in disrupting KRAS G12C protein/effector signaling in cells.
On Day 1, cells (NCI-H358) were seeded into 96-well plates at 4×10^4 cells/well in complete growth media (RPMI, 10% FBS).
On Day 2, cells were treated with compounds at 0.25% DMSO. The source plate was created with compounds diluted in media at 5-fold the final assay concentration. The compounds were run in a 9-point concentration curve starting at 75 μM, with a 3-fold dilution between concentrations. 20 μL was transferred onto the cell plates (final volume in wells was 100 μL). Plates were harvested after 30 min incubation by aspirating media and adding kit-supplied 1× supplemented lysis buffer to all wells (75 μL per well). Plates were then placed on a plate shaker and incubated at 850 rpm for an additional 30 min.
Antibody mixture solution was prepared by diluting aliquoted d2 and Eu Cryptate antibodies 1:20 in kit supplied detection buffer, then mixed the diluted antibodies solutions (1:1 v:v). 4 μL of this solution was then added to a 384-well detection plate (Perkin Elmer; 6008230).
Samples were homogenized by pipetting up and down and then transferred (16 μL of cell lysates) from the 96-well cell culture plate to two wells of the HTRF 384-well detection plate containing the antibody solution. Plates were centrifuged (524 g for 1 min) and allowed to incubate between 4 and 24 h at room temperature. Maximum signal is reached after 4 h incubation time and remains stable over a period of 24 hours. Therefore, readings can be made between 4 and 24 h of incubation. Plates were centrifuged again (524 g for 1 min) and analyzed on the EnVision plate reader using the following settings: Excitation 320 nm, Bandwidth 75 nm; Emission 615 nm, Bandwidth 85 nm; Gain 100%; Flashes 100; Lag 60 μs.

Structure (SMILES) | GppNHp-KRAS G12C percent of modification [1] | GTP-KRAS G12C percent of modification [2] | GDP-KRAS G12C percent of modification [3] | IC50 [4] [nM] | IC50 (pERK in NCI-H358 cells) [nM]
C=CC(=O)N1CCC(N(C)c2nc(OC[C@@]34CCCN3C[C@H](F)C4)nc3c(Cl)c(-c4ccc(F)c5sc(N)c(C#N)c45)ncc23)[C@H]1COC (mixture of isomers) [Compound 29, 4-(4-((rac-(2S,3R)-1-acryloyl-2-(methoxymethyl)pyrrolidin-3-yl)(methyl)amino)-8-chloro-2-(((2R,7aS)-2-fluorotetrahydro-1H-pyrrolizin-7a(5H)-yl)methoxy)pyrido[4,3-d]pyrimidin-7-yl)-2-amino-7-fluorobenzo[b]thiophene-3-carbonitrile] | A (percent of modification ≥70%) | A (percent of modification ≥70%) | A (percent of modification ≥70%) | ≤ 500 | ≤ 100
C=CC(=O)N1CC[C@@H](N(C)c2nc(OC[C@@]34CCCN3C[C@H](F)C4)nc3c(F)c(-c4c(F)cc(F)c5sc(N)nc45)ncc23)C1 [Compound 5] | A (percent of modification ≥70%) | A (percent of modification ≥70%) | A (percent of modification ≥70%) | ≤ 500 | ≤ 100
C=CC(=O)N1CC[C@@H](N(C)c2nc(OC[C@@]34CCCN3C[C@H](F)C4)nc3c(F)c(-c4ccc(F)c5sc(N)c(C#N)c45)ncc23)C1 [Compound 6, 2-amino-7-fluoro-4-[8-fluoro-2-[[(2R,8S)-2-fluoro-1,2,3,5,6,7-hexahydropyrrolizin-8-yl]methoxy]-4-[methyl-[(3R)-1-prop-2-enoylpyrrolidin-3-yl]amino]pyrido[4,3-d]pyrimidin-7-yl]benzothiophene-3-carbonitrile] | A (percent of modification ≥70%) | A (percent of modification ≥70%) | A (percent of modification ≥70%) | ≤ 500 | ≤ 100
C=CC(=O)N1C[C@H](C)N(c2nc(OC[C@@]34CCCN3C[C@H](F)C4)nc3c(F)c(-c4ccc(F)c5sc(N)c(C#N)c45)ncc23)C[C@H]1C [Compound 7, 2-amino-4-[4-[(2S,5R)-2,5-dimethyl-4-prop-2-enoyl-piperazin-1-yl]-8-fluoro-2-[[(2R,8S)-2-fluoro-1,2,3,5,6,7-hexahydropyrrolizin-8-yl]methoxy]pyrido[4,3-d]pyrimidin-7-yl]-7-fluoro-benzothiophene-3-carbonitrile] | B (50% percent of modification <70%) | D (percent of modification <10%) | A (percent of modification ≥70%) | ≤ 500 | ≤ 100
C=CC(=O)N1CC[C@@H](N(C)c2nc(OC[C@@]34CCCN3C[C@H](F)C4)nc3cc(-c4ccc(F)c5sc(N)c(C#N)c45)c(C(F)(F)F)nc23)C1 [Compound 8] | C (10%≤percent of modification <50%) | C (10%≤percent of modification <50%) | C (10%≤percent of modification <50%) | ≤ 500 | ≤ 100
C=CC(=O)N1CC[C@@H](N(C)c2nc(OC[C@@]34CCCN3C[C@H](F)C4)nc3nc(-c4ccc(F)c5sc(N)c(C#N)c45)ccc23)C1 [Compound 9, 4-(4-(((R)-1-acryloylpyrrolidin-3-yl)(methyl)amino)-2-(((2R,7aS)-2-fluorotetrahydro-1H-pyrrolizin-7a(5H)-yl)methoxy)pyrido[2,3-d]pyrimidin-7-yl)-2-amino-7-fluorobenzo[b]thiophene-3-carbonitrile] | C (10%≤percent of modification <50%) | C (10%≤percent of modification <50%) | A (percent of modification ≥70%) | ≤ 500 | > 1000
C=CC(=O)N1C[C@H](C)N(c2nc(OC[C@@]34CCCN3C[C@H](F)C4)nc3cc(-c4ccc(F)c5sc(N)c(C#N)c45)c(C(F)(F)F)nc23)C[C@H]1C [Compound 10, 4-(4-((2S,5R)-4-acryloyl-2,5-dimethylpiperazin-1-yl)-2-(((2R,7aS)-2-fluorotetrahydro-1H-pyrrolizin-7a(5H)-yl)methoxy)-6-(trifluoromethyl)pyrido[3,2-d]pyrimidin-7-yl)-2-amino-7-fluorobenzo[b]thiophene-3-carbonitrile] | A (percent of modification ≥70%) | C (10%≤percent of modification <50%) | A (percent of modification ≥70%) | ≤ 500 | ≤ 100
